These are literature values, as cited in patent publication US6415234B1, “Designing inhibitors for glycosyltransferases” (Glyco Design Inc., priority 1998, dated 2002).

The conditions of this data set: polarised continuum model.

For the compound `O=P(O)(O)OP(=O)(O)O` [pyrophosphate dianion], the “solvation free energy in water” value was -195.8 kcal/mol.
